# Measurements as given in patent US20230085307A1, “PYRIDAZINONE COMPOUND AND HERBICIDE” (NISSAN CHEMICAL CORPORATION, priority 2019, published 2023).
# Columns and labels:
# [1] = tested on: late watergrass; test: Test Example 1: herbicidal activity, application before weed generation under submerged conditions (Table 16, symbol A); type: in vivo, late watergrass (Echinochloa oryzicola); conditions: for Herbicidal effect, A: late watergrass: amount of applied herbicide 320 g/ha
# How it was run: (§1)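 Submerged Wagner pots (alluvial soil, 4 cm water) sown with weed seeds and planted with 2.5-leaf rice seedlings; emulsifiable concentrate diluted in water applied to water surface on sowing day. Held in greenhouse at 25-30 °C; injury scored 0-5 by herbicidal rate after three weeks.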
# [2] = tested on: Japanese bulrush; test: Test Example 1: herbicidal activity, application before weed generation under submerged conditions (Table 16, symbol B); type: in vivo, Japanese bulrush (Schoenoplectus juncoides); conditions: for Herbicidal effect, B: Japanese bulrush: amount of applied herbicide 320 g/ha
# How it was run: as §1
# [3] = tested on: oval-leafed pondweed; test: Test Example 1: herbicidal activity, application before weed generation under submerged conditions (Table 16, symbol C); type: in vivo, oval-leafed pondweed (Monochoria vaginalis); conditions: for Herbicidal effect, C: oval-leafed pondweed: amount of applied herbicide 320 g/ha
# How it was run: as §1
# [4] = tested on: late watergrass; test: Test Example 2: herbicidal activity, application during weed generation under submerged conditions (Table 17, symbol A); type: in vivo, late watergrass (Echinochloa oryzicola); conditions: AAH 320 g/ha; application during weed generation, submerged conditions
# How it was run: (§2)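 Steps: fill Wagner pots with alluvial soil; add water to give 4 cm depth; sow the species mixed; grow under glass at 25–30° C.; at 1–2 leaves apply water-diluted emulsion formulation to the water surface at a fixed herbicide amount; score after 3 weeks.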
# [5] = tested on: Japanese bulrush; test: Test Example 2: herbicidal activity, application during weed generation under submerged conditions (Table 17, symbol B); type: in vivo, Japanese bulrush (Schoenoplectus juncoides); conditions: AAH 320 g/ha; application during weed generation, submerged conditions
# How it was run: as §2
# [6] = tested on: oval-leafed pondweed; test: Test Example 2: herbicidal activity, application during weed generation under submerged conditions (Table 17, symbol C); type: in vivo, oval-leafed pondweed (Monochoria vaginalis); conditions: AAH 320 g/ha; application during weed generation, submerged conditions
# How it was run: as §2
# [7] = tested on: barnyard grass; test: Test Example 3: herbicidal effect by foliage application, Wagner pot (Table 18, symbol H); type: in vivo, barnyard grass (Echinochloa crus-galli); conditions: for herbicidal effect on barnyard grass (H): 320 g/ha
# How it was run: (§3)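 Plants were sown in alluvial soil held under 0.1–0.5 cm standing water and grown 14 days in a greenhouse at 25–30 °C. An emulsifiable formulation, water-diluted to the set dose, was then sprayed onto the foliage, and effects were scored three weeks later using previously defined criteria.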
# [8] = tested on: Chinese sprangletop; test: Test Example 3: herbicidal effect by foliage application, Wagner pot (Table 18, symbol D); type: in vivo, chinese sprangletop (Leptochloa chinensis); conditions: for herbicidal effect on Chinese sprangletop (D): 320 g/ha
# How it was run: as §3
# [9] = tested on: rice flat sedge; test: Test Example 3: herbicidal effect by foliage application, Wagner pot (Table 18, symbol E); type: in vivo, rice flat sedge (Cyperus iria); conditions: for herbicidal effect on rice flat sedge (E): 320 g/ha
# How it was run: as §3
# [10] = tested on: southern crabgrass; test: Test Example 5: herbicidal effect by foliage application, plastic box (Table 20, symbol F); type: in vivo, southern crabgrass (Digitaria ciliaris); conditions: 320 g/ha, evaluated three weeks after application; for herbicidal effect on F: southern crabgrass (evaluation grade 0-5): foliage application after 14-day growth
# How it was run: (§4)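 Post-emergence foliar test in sterilized diluvial soil. Compound applied as water-diluted emulsion at a predetermined rate to 14-day-old plants; evaluation at three weeks.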
# [11] = tested on: green foxtail; test: Test Example 5: herbicidal effect by foliage application, plastic box (Table 20, symbol G); type: in vivo, green foxtail (Setaria viridis); conditions: 320 g/ha, evaluated three weeks after application; for herbicidal effect on G: green foxtail (evaluation grade 0-5): foliage application after 14-day growth
# How it was run: as §4
# [12] = tested on: barnyard grass; test: Test Example 5: herbicidal effect by foliage application, plastic box (Table 20, symbol H); type: in vivo, barnyard grass (Echinochloa crus-galli); conditions: 320 g/ha, evaluated three weeks after application; for herbicidal effect on H: barnyard grass (evaluation grade 0-5): foliage application after 14-day growth
# How it was run: as §4
# [13] = tested on: wild oat; test: Test Example 5: herbicidal effect by foliage application, plastic box (Table 20, symbol I); type: in vivo, wild oat (Avena fatua); conditions: 320 g/ha, evaluated three weeks after application; for herbicidal effect on I: wild oat (evaluation grade 0-5): foliage application after 14-day growth
# How it was run: as §4
# [14] = tested on: blackgrass; test: Test Example 5: herbicidal effect by foliage application, plastic box (Table 20, symbol J); type: in vivo, blackgrass (Alopecurus myosuroides); conditions: 320 g/ha, evaluated three weeks after application; for herbicidal effect on J: blackgrass (evaluation grade 0-5): foliage application after 14-day growth
# How it was run: as §4
# [15] = tested on: Italian ryegrass; test: Test Example 5: herbicidal effect by foliage application, plastic box (Table 20, symbol K); type: in vivo, Italian ryegrass (Lolium multiflorum); conditions: 320 g/ha, evaluated three weeks after application; for herbicidal effect on K: Italian ryegrass (evaluation grade 0-5): foliage application after 14-day growth
# How it was run: as §4
# [16] = tested on: windgrass; test: Test Example 5: herbicidal effect by foliage application, plastic box (Table 20, symbol L); type: in vivo, windgrass (Apera spica-venti); conditions: 320 g/ha, evaluated three weeks after application; for herbicidal effect on L: windgrass (evaluation grade 0-5): foliage application after 14-day growth
# How it was run: as §4
# [17] = tested on: velvetleaf; test: Test Example 5: herbicidal effect by foliage application, plastic box (Table 20, symbol M); type: in vivo, velvetleaf (Abutilon theophrasti); conditions: 320 g/ha, evaluated three weeks after application; for herbicidal effect on M: velvetleaf (evaluation grade 0-5): foliage application after 14-day growth
# How it was run: as §4
# [18] = tested on: redroot pigweed; test: Test Example 5: herbicidal effect by foliage application, plastic box (Table 20, symbol N); type: in vivo, redroot pigweed (Amaranthus retroflexus); conditions: 320 g/ha, evaluated three weeks after application; for herbicidal effect on N: redroot pigweed (evaluation grade 0-5): foliage application after 14-day growth
# How it was run: as §4
# [19] = tested on: lambsquarters; test: Test Example 5: herbicidal effect by foliage application, plastic box (Table 20, symbol O); type: in vivo, lambsquarters (Chenopodium album); conditions: 320 g/ha, evaluated three weeks after application; for herbicidal effect on O: lambsquarters (evaluation grade 0-5): foliage application after 14-day growth
# How it was run: as §4
# [20] = tested on: chickweed; test: Test Example 5: herbicidal effect by foliage application, plastic box (Table 20, symbol P); type: in vivo, common chickweed (Stellaria media); conditions: 320 g/ha, evaluated three weeks after application; for herbicidal effect on P: chickweed (evaluation grade 0-5): foliage application after 14-day growth
# How it was run: as §4
# [21] = tested on: persian speedwell; test: Test Example 5: herbicidal effect by foliage application, plastic box (Table 20, symbol R); type: in vivo, Persian speedwell (Veronica persica); conditions: 320 g/ha, evaluated three weeks after application; for herbicidal effect on R: persian speedwell (evaluation grade 0-5): foliage application after 14-day growth
# How it was run: as §4
# [22] = amount of applied herbicide 320 g/ha
Compound,"herbicidal effect rating, A: late watergrass [4]","herbicidal effect rating, B: Japanese bulrush [5]","herbicidal effect rating, C: oval-leafed pondweed [6]","Herbicidal effect, A: late watergrass [1]","Herbicidal effect, B: Japanese bulrush [2]","Herbicidal effect, C: oval-leafed pondweed [3]",herbicidal effect on barnyard grass (H) [7],herbicidal effect on Chinese sprangletop (D) [8],herbicidal effect on rice flat sedge (E) [9],herbicidal effect on F: southern crabgrass (evaluation grade 0-5) [10],herbicidal effect on G: green foxtail (evaluation grade 0-5) [11],herbicidal effect on H: barnyard grass (evaluation grade 0-5) [12],herbicidal effect on I: wild oat (evaluation grade 0-5) [13],herbicidal effect on J: blackgrass (evaluation grade 0-5) [14],herbicidal effect on K: Italian ryegrass (evaluation grade 0-5) [15],herbicidal effect on L: windgrass (evaluation grade 0-5) [16],herbicidal effect on M: velvetleaf (evaluation grade 0-5) [17],herbicidal effect on N: redroot pigweed (evaluation grade 0-5) [18],herbicidal effect on O: lambsquarters (evaluation grade 0-5) [19],herbicidal effect on P: chickweed (evaluation grade 0-5) [20],also measured
Cc1nn(C)c(=O)c(-c2c(-c3ccc(C(=O)O)cc3)sc3ccc(Cl)cc23)c1O [2-113],2 (Herbicidal rate of 20% or more and less than 40%),0 (Herbicidal rate of 5% or less (almost no effect)),0 (Herbicidal rate of 5% or less (almost no effect)),–,–,–,–,–,–,–,–,–,–,–,–,–,–,–,–,–,"Herbicidal effect on A: late watergrass (grade 0-5) ([1]; 320 g/ha applied herbicide): 3 (Herbicidal rate of 40% or more and less than 70%); Herbicidal effect on B: Japanese bulrush (grade 0-5) ([2]; 320 g/ha applied herbicide): 0 (Herbicidal rate of 5% or less (almost no effect)); Herbicidal effect on C: oval-leafed pondweed (grade 0-5) ([3]; 320 g/ha applied herbicide): 0 (Herbicidal rate of 5% or less (almost no effect)); herbicidal effect on H: barnyard grass [7, 22]: 3 (Herbicidal rate of 40% or more and less than 70%); herbicidal effect on D: Chinese sprangletop [8, 22]: 1 (Herbicidal rate of 5% or more and less than 20%); herbicidal effect on E: rice flat sedge [9, 22]: 0 (Herbicidal rate of 5% or less (almost no effect)); herbicidal effect on F: southern crabgrass ([10]; foliage application): 0 (Herbicidal rate of 5% or less (almost no effect)); herbicidal effect on G: green foxtail ([11]; foliage application): 0 (Herbicidal rate of 5% or less (almost no effect)); herbicidal effect on H: barnyard grass ([12]; foliage application): 0 (Herbicidal rate of 5% or less (almost no effect)); herbicidal effect on I: wild oat ([13]; foliage application): 0 (Herbicidal rate of 5% or less (almost no effect)); herbicidal effect on J: blackgrass ([14]; foliage application): 0 (Herbicidal rate of 5% or less (almost no effect)); herbicidal effect on K: Italian ryegrass ([15]; foliage application): 0 (Herbicidal rate of 5% or less (almost no effect)); herbicidal effect on L: windgrass ([16]; foliage application): 0 (Herbicidal rate of 5% or less (almost no effect)); herbicidal effect on M: velvetleaf ([17]; foliage application): 0 (Herbicidal rate of 5% or less (almost no effect)); herbicidal effect on N: redroot pigweed ([18]; foliage application): 0 (Herbicidal rate of 5% or less (almost no effect)); herbicidal effect on O: lambsquarters ([19]; foliage application): 0 (Herbicidal rate of 5% or less (almost no effect)); herbicidal effect on P: chickweed ([20]; foliage application): 0 (Herbicidal rate of 5% or less (almost no effect)); herbicidal effect on R: persian speedwell ([21]; foliage application): 0 (Herbicidal rate of 5% or less (almost no effect))"
Cc1nn(C)c(=O)c(-c2c(-c3ccc(C(F)(F)F)cc3)sc3cc(Cl)ccc23)c1O [3-145],3 (Herbicidal rate of 40% or more and less than 70%),2 (Herbicidal rate of 20% or more and less than 40%),0 (Herbicidal rate of 5% or less (almost no effect)),3 (Herbicidal rate of 40% or more and less than 70%),2 (Herbicidal rate of 20% or more and less than 40%),0 (Herbicidal rate of 5% or less (almost no effect)),3 (Herbicidal rate of 40% or more and less than 70%),5 (Herbicidal rate of 90% or more (almost completely withered)),4 (Herbicidal rate of 70% or more and less than 90%),0 (Herbicidal rate of 5% or less (almost no effect)),2 (Herbicidal rate of 20% or more and less than 40%),0 (Herbicidal rate of 5% or less (almost no effect)),0 (Herbicidal rate of 5% or less (almost no effect)),0 (Herbicidal rate of 5% or less (almost no effect)),0 (Herbicidal rate of 5% or less (almost no effect)),5 (Herbicidal rate of 90% or more (almost completely withered)),3 (Herbicidal rate of 40% or more and less than 70%),3 (Herbicidal rate of 40% or more and less than 70%),3 (Herbicidal rate of 40% or more and less than 70%),0 (Herbicidal rate of 5% or less (almost no effect)),herbicidal effect on R: persian speedwell (evaluation grade 0-5) [21]: 0 (Herbicidal rate of 5% or less (almost no effect))
CCCC(=O)Oc1c(C)nn(C)c(=O)c1-c1c(-c2ccc(C)cc2)sc2c(Cl)cccc12 [4-020],0 (Herbicidal rate of 5% or less (almost no effect)),3 (Herbicidal rate of 40% or more and less than 70%),0 (Herbicidal rate of 5% or less (almost no effect)),4 (Herbicidal rate of 70% or more and less than 90%),3 (Herbicidal rate of 40% or more and less than 70%),0 (Herbicidal rate of 5% or less (almost no effect)),4 (Herbicidal rate of 70% or more and less than 90%),5 (Herbicidal rate of 90% or more (almost completely withered)),5 (Herbicidal rate of 90% or more (almost completely withered)),0 (Herbicidal rate of 5% or less (almost no effect)),0 (Herbicidal rate of 5% or less (almost no effect)),0 (Herbicidal rate of 5% or less (almost no effect)),3 (Herbicidal rate of 40% or more and less than 70%),0 (Herbicidal rate of 5% or less (almost no effect)),4 (Herbicidal rate of 70% or more and less than 90%),5 (Herbicidal rate of 90% or more (almost completely withered)),5 (Herbicidal rate of 90% or more (almost completely withered)),5 (Herbicidal rate of 90% or more (almost completely withered)),2 (Herbicidal rate of 20% or more and less than 40%),5 (Herbicidal rate of 90% or more (almost completely withered)),herbicidal effect on R: persian speedwell (evaluation grade 0-5) [21]: 5 (Herbicidal rate of 90% or more (almost completely withered))
